Results reported in patent publication US8633226B2, “Piperidinyl derivative as a modulator of chemokine receptor activity” (Bristol-Myers Squibb Company, priority 2008, dated 2014).
Where two headings read alike, the source gives them in different places.

Assays:
[1] = target: Human CCR1 (Homo sapiens (Human), UniProt P32246); assay: Human CCR1 THP-1 binding assay; settings: [125I]-MIP-1α competition, THP-1 cells
Experimental: For radioligand competition studies, a final concentration of 1×10^5 THP-1 monocytic leukemia cells are combined with 100 μg of LS WGA PS beads (Amersham, Cat.#: RPNQ 0260) in 40 μL of assay buffer (RPMI 1640 without phenol red, 50 mM HEPES, 5 mM MgCl2, 1 mM CaCl2, 0.1% BSA). The THP-1 cell/bead mixture was added to each well of a 384-well assay plate (PerkinElmer, Cat. #:6007899) containing test compound in 3-fold serial dilution, with final concentrations ranging from 8 μM to 0.14 nM. A final concentration of 0.1 nM [^125I]-MIP-1α (PerkinElmer, Cat. #NEX298) in 20 μL assay buffer was added to the reaction. Unlabeled MIP-1α was added in excess to some wells to determine non-specific binding. Sealed assay plates were incubated at room temperature for 12 h then analyzed by LEADseeker™.
The competition data of the test compound over a range of concentrations is plotted as percentage inhibition of radioligand specifically bound in the absence of test compound (percent of total signal). After correcting for non-specific binding, IC50 values are determined. The IC50 value is defined as the concentration of test compound needed to reduce [^125I]-MIP-1α specific binding by 50% and is calculated using the four parameter logistic equation to fit the normalized data. The Ki values are determined by application of the Cheng-Prusoff equation to the IC50 values, where Ki=IC50/(1+ligand concentration/Kd). The Kd of [^125I]-MIP-1α in THP-1 cells is 0.1 nM. Each experiment was run in duplicate.

[2] = target: human cardiac L-type Ca channel (α1C) and its β subunit (Homo sapiens (Human), UniProt Q13936); assay: L-type calcium channel whole-cell patch-clamp assay; type: cell-based; settings: 30 μM, HEK-293 cells, protein-free buffer
Chain of human cardiac L-type Ca channel (α1C) and its β subunit (Q13936 whole entry): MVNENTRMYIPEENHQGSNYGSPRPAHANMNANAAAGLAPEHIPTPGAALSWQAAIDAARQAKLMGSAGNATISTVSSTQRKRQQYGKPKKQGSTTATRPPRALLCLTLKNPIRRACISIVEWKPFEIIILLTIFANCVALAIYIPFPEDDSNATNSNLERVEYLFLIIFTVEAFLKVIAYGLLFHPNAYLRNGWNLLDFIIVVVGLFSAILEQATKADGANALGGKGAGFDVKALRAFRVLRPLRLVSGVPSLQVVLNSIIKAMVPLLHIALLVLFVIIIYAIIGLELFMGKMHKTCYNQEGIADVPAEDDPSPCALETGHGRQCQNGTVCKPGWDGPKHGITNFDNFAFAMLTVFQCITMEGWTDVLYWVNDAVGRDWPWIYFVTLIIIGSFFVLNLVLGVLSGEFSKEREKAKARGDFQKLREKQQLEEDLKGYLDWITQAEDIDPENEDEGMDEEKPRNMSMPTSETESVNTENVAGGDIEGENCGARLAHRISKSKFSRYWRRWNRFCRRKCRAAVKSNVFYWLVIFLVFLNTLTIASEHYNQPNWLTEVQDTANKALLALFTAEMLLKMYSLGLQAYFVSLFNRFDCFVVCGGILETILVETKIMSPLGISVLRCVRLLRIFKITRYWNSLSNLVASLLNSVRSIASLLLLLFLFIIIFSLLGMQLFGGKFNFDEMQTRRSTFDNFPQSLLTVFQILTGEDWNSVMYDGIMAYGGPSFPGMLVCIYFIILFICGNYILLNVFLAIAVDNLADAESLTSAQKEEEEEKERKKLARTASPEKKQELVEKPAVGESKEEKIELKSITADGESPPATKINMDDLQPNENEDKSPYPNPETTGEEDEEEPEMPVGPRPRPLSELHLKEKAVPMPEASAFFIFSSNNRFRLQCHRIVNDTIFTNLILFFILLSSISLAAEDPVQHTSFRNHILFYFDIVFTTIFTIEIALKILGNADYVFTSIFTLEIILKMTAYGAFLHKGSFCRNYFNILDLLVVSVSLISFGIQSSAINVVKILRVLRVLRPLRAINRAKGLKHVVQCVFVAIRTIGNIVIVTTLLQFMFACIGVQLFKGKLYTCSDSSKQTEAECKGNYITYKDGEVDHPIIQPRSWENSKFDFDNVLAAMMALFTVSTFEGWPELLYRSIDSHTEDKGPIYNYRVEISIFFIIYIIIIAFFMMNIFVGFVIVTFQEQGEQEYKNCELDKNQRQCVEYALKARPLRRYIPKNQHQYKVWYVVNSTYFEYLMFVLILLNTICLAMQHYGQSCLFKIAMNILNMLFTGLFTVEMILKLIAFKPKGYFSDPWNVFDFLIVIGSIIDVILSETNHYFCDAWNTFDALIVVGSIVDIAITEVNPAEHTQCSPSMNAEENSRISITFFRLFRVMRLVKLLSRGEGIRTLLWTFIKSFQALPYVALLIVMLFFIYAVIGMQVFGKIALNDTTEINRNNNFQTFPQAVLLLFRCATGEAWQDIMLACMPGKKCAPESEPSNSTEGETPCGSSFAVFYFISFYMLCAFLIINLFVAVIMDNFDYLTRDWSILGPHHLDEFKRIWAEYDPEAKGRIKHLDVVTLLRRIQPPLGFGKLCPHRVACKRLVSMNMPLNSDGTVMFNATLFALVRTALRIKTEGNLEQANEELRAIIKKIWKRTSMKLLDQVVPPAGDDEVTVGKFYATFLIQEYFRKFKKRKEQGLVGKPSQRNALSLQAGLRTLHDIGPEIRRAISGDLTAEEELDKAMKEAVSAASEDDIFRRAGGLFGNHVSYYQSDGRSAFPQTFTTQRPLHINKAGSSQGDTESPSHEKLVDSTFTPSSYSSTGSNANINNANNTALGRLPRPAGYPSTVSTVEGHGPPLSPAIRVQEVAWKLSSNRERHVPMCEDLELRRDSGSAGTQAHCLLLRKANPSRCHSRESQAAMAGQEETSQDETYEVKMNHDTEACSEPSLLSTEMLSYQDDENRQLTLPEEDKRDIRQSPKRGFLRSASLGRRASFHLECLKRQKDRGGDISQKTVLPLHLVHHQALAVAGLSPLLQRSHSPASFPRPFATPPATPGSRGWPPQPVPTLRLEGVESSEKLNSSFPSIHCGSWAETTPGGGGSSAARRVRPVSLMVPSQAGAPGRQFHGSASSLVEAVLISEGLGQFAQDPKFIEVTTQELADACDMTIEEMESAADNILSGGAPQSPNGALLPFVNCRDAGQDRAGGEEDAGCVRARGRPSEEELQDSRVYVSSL
Chain of human cardiac L-type Ca channel (α1C) and its β subunit (Q08289 whole entry partner): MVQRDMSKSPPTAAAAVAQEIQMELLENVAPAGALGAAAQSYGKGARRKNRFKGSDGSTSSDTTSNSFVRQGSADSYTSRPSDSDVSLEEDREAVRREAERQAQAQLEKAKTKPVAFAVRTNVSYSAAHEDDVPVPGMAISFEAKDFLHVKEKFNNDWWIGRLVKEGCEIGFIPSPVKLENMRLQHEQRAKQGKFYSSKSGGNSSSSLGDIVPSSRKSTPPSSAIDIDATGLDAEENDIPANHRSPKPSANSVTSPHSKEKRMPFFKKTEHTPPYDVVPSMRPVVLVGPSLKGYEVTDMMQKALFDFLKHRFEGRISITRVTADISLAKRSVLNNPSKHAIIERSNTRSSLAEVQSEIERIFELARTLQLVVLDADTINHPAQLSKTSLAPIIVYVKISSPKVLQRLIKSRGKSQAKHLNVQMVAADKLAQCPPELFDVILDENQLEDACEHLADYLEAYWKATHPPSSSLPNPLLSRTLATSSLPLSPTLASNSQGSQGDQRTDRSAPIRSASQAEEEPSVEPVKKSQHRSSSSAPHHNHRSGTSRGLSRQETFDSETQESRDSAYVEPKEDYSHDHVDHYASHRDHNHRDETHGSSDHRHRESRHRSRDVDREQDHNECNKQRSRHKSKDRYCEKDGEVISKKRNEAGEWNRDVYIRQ
Experimental: In addition to the potential for interaction with the L-type calcium channel, whole-cell patch-clamp was used to directly measure inward calcium currents in HEK-293 cells stably expressing the cloned human cardiac L-type Ca channel (α1C) and its β subunit. Effects of compounds were calculated by measuring inhibition of peak current. Experiments were carried out using an aqueous buffer at pH 7.4 and at room temperature. There is no protein in the buffer and drug concentrations reported are nominal free drug levels.

[3] = Protein binding, human; type: in vitro ADME
[4] = Electrocardiography in anesthetized rabbits; type: in vivo; settings: male, blood, anesthetized rabbit, iv
Experimental: (§1) A dose-response study of test compound was conducted in anesthetized rabbits to assess the cardiac electrophysiologic profile established in the cellular ion channel assays.
(§2) Experiments were performed in propofol-fentanyl anesthetized closed-chest male rabbits. A body surface electrocardiogram (ECG) and an intra-cardiac His-bundle electrogram were continuously monitored and recorded during the studies, using a PoNeMah system and a Prucka electrophysiological recording system, respectively. Test compound was prepared on the day of study in a vehicle of PEG400:ethanol:water (1:1:1) at a dosing concentration of 30 mg/mL. Test compound (n=3) or vehicle (n=3) was given intravenously over 5 minutes via an infusion pump at incremental doses of 3, 10 and 30 mg/kg. The interval between doses was 10 minutes, allowing for a 5-minute test agent infusion and a 5-minute rest period. Blood was sampled at baseline (pre-drug infusion) and immediately at the end of each infusion. For the 30 mg/kg dose, additional blood samples were taken at 10, 20 and 30 minutes after the end of infusion.
(§3) PR interval, QRS duration and QT interval were averaged from a 1 minute ECG recording period at time of blood sampling. QT interval was corrected for heart rate effects using both Fridericia (QTcf) and Van der Water (QTcv) formulae. AH and HV intervals, representing A-V node conduction and His-Purkinje conduction, respectively, were assessed by manual measurements from the His-bundle electrogram. Data were expressed as percent change from pre-drug baseline (mean±SEM) for PR, QRS, AH and HV intervals as well as delta change from the pre-drug infusion baseline (mean±SEM) for QTc intervals. Changes of ≧10% in PR, QRS, and AH intervals, and 20% in HV interval, as well as >10 ms in QTc interval are considered significant based on experience with the model.

[5] = tested on: anesthetized rabbits; assay: Electrocardiography in anesthetized rabbits; type: in vivo; settings: anesthetized rabbit
Experimental: as §1, §2, §3

[6] = In vitro metabolism assay, human liver microsomes, Assay Conditions A; type: in vitro ADME; settings: 0.5 μM compound, 10 minutes, 37° C.
Experimental: Test compound is received as a 3.5 mM stock solution in 100 percent DMSO. Compound is diluted to create a 50 μM acetonitrile (ACN) solution containing 1.4% DMSO, which is then used as a 100× stock for incubation with microsomes. Each compound is tested in duplicate separately in each of three species in the Metabolic Stability-Human, Rat, and Mouse assay suite or as individual species in the Metabolic Stability-Dog or Metabolic Stability-Monkey suites. Compound, NADPH and liver microsome solutions are combined for incubation in three steps:
152 μL of liver microsome suspension, protein concentration of 1.1 mg/mL in 100 mM NaPi, pH 7.4, 6.6 mM MgCl2 buffer, is pre-warmed at 37° C.
• 1) 1.7 μL of 50 μM compound (98.6% ACN, 1.4% DMSO) is added to the same tube and pre-incubated at 37° C. for 5 minutes. • 2) The reaction is initiated by the addition of 17 μL of pre-warmed 10 mM NADPH solution in 100 mM NaPi, pH 7.4. • 3) Reaction components are mixed well, and 75 μL are immediately transferred into 150 μl quench/stop solution (zero-time point, T0). Reactions are incubated at 37° C. for 10 minutes and then an additional 75 μL aliquot is transferred into 150 μL quench solution. Acetonitrile containing 100 μM DMN (a UV standard for injection quality control), is used as the quench solution to terminate metabolic reactions. • 4) Quenched mixtures are centrifuged at 1500 rpm (˜500×g) in an Allegra X-12 centrifuge, SX4750 rotor (Beckman Coulter Inc., Fullerton, Calif.) for fifteen minutes to pellet denatured microsomes. A volume of 90 μL of supernatant extract, containing the mixture of parent compound and its metabolites, is then transferred to a separate 96-well plate for UV-LC/MS-MS analysis to determine the percent of parent compound that is remaining in the mixture. • 5)

Chain of Human CCR1 (P32246 whole entry): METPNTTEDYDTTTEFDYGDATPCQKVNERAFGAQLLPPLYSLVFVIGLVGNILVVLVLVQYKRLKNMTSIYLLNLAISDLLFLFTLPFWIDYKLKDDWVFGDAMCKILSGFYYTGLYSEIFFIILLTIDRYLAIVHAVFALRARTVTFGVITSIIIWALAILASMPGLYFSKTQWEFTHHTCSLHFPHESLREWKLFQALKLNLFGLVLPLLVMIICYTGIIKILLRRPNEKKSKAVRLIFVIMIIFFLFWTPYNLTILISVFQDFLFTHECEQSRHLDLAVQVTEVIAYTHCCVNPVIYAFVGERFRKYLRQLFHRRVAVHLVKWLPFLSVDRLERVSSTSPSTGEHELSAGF

CC(C)[C@@H](NC(=O)NCC(C)(C)O)C(=O)N1CC[C@](O)(c2ccc(Cl)cc2)C(C)(C)C1 [Compound I]
Ki [1]: 0.7 nM | Ca, % inh [2]: 29% @ 30 μM | fraction unbound [3]: 0.19 | Cmax ([4]; 30 mg/kg, read-out: Cmax: Total drug at QT effect dose): 202 µM | Cmax ([4]; NOEL dose 10 mg/kg, read-out: Cmax: Total drug at NOEL dose): 65.2 µM | NOEL dose (No Observed Effect Level) ([5]; iv infusion): 10 mg/kg | QT effect Dose ([5]; iv infusion): 30 mg/kg | QTcf, delta ([5]; iv infusion, at QT effect dose 30 mg/kg): 12 ms | Cmax: Free drug at QT effect dose ([5]; iv, 30 mg/kg): 26 µM | Cmax: Free drug at NOEL dose ([5]; iv, NOEL dose 10 mg/kg): 8.5 µM

CC(C)CC(=O)N[C@@H](C(=O)N1CC[C@](O)(c2ccc(Cl)cc2)C(C)(C)C1)C(C)C [#466]
Ki [1]: 2.6 nM | Human Liver Microsomal Metabolism % remaining (Assay Conditions A) [6]: 67%

CC(C)[C@@H](NC(=O)C1CCCC1)C(=O)N1CC[C@](O)(c2ccc(Cl)cc2)C(C)(C)C1 [#460]
Ki [1]: 0.7 nM | Human Liver Microsomal Metabolism % remaining (Assay Conditions A) [6]: 47%

CC(C)[C@@H](NC(=O)CC(C)(C)O)C(=O)N1CC[C@](O)(c2ccc(Cl)cc2)C(C)(C)C1 [#1356]
Ki [1]: 3.7 nM | Human Liver Microsomal Metabolism % remaining (Assay Conditions A) [6]: 100% (A)/100% (B)
